Values joined by “and” are separate entries in the source; they are usually repeats but may differ in a detail not shown here. Equal values may be shown once. Read-outs that look alike come from different tables or passages of the source. Some results are limits rather than exact numbers.

Assay [1] deals with T1, c-Src (Homo sapiens, UniProt P12931).
T1 construct: purchased Upstate Biotechnologies
The experiment in a line: c-Src Kinase Assay (ELISA format). The assay is classed as biochemical. Summed up:
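Partially purified Src preincubated with compound and biotinylated peptide 10 min at 30 °C in Tris-HCl pH 7.5 with MgCl2, EGTA, vanadate; ATP-started reaction ran 1 h at 30 °C, EDTA-stopped. Phosphopeptide captured on streptavidin, detected by HRP anti-phosphotyrosine; % inhibition = (1 − Abs/Abs(max)) × 100.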

Assay [2] deals with Rat2 fibroblasts stably transformed with a plasmid containing a CMV promotor controlled v-Src/Hu c-Src fusion gene. The experiment in a line: Anchorage Independent Src-transformed Fibroblast Proliferation Assay.
[3] abbreviates: Rattus norvegicus, Rat2, 120 h, read-out: anch-indep src-tx fib IC50, suspension growth, MTS on Day 5.
[4] abbreviates: read-out: anch-indep src-tx fib IC50, suspension growth, MTS on Day 5.

With `COc1cc(Nc2c(C#N)cnc3cc(-c4ccc(CN5CCOCC5)s4)ccc23)c(Cl)cc1Cl` [Example 23, 4-(2,4-Dichloro-5-methoxyanilino)-7-[5-(4-morpholinylmethyl)-2-thienyl]-3-quinolinecarbonitrile], the IC50 came to 2 nM in assay [1] and 90 nM in assay [2] (setting [3]).

For the compound `COc1cc(Nc2c(C#N)cnc3cc(-c4cc(CN5CCOCC5)c(CN5CCOCC5)s4)c(OC)cc23)c(Cl)cc1Cl` [Example 82, 7-[4,5-Bis(4-morpholinylmethyl)-2-thienyl]-4-(2,4-dichloro-5-methoxyanilino)-6-methoxy-3-quinolinecarbonitrile], the IC50 was 0.48 nM in assay [1] and 50 nM in assay [2] (setting [3]).

`COc1cc(Nc2c(C#N)cnc3cc(-c4cccc(CN5CCN(C)CC5)c4)ccc23)c(Cl)cc1Cl` [Example 113, 4-(2,4-Dichloro-5-methoxyanilino)-7-{3-[(4-methyl-1-piperazinyl)methyl]phenyl}-3-quinolinecarbonitrile]: the concentration for half-maximal inhibition (IC50) in assay [1] amounted to 10 nM; in assay [2] (setting [3]), 1400 nM.

Regarding “4-(2,4-Dichloro-5-methoxyanilino)-7-{5-[(4-hydroxy-1-piperidinyl)methyl]-2-thienyl}-3-quinolinecarbonitrile [Example 89]”, the IC50 in assay [1] was 0.52 nM and 0.84 nM; in assay [2] (setting [4]), 90 nM.

As to `COc1cc(Nc2c(C#N)cnc3cc(-c4cscc4CN4CCOCC4)ccc23)c(Cl)cc1Cl` [Example 65, 4-(2,4-Dichloro-5-methoxyanilino)-7-[4-(4-morpholinylmethyl)-3-thienyl]-3-quinolinecarbonitrile], the IC50 was 200 nM in assay [1] and above 10000 nM in assay [2] (setting [3]).

With `COc1cc(Nc2c(C#N)cnc3cc(-c4csc(CN5CCOCC5)c4)ccc23)c(C)cc1Cl` [Example 167, 4-(4-chloro-5-methoxy-2-methylanilino)-7-[5-(4-morpholinylmethyl)-3-thienyl]-3-quinolinecarbonitrile], the IC50 is 12 nM and 16 nM in assay [1]; 900 nM in assay [2] (setting [3]).

Take `COc1cc(Nc2c(C#N)cnc3cc(-c4ccc(CNCCc5ccccn5)o4)ccc23)c(Cl)cc1Cl` [Example 74]: the IC50 in assay [1] was determined as 40 nM; in assay [2] (setting [4]), 1400 nM.

Take `COc1cc(Nc2c(C#N)cnc3cc(-c4ccc(CNCCS(C)(=O)=O)cc4)ccc23)c(Cl)cc1Cl` [Example 88, 4-(2,4-Dichloro-5-methoxyanilino)-7-[4-({[2-(methylsulfonyl)ethyl]amino}methyl)phenyl]-3-quinolinecarbonitrile]: the IC50 in assay [1] amounted to 3 nM; in assay [2] (setting [3]), 850 nM.

Turning to `COc1cc(Nc2c(C#N)cnc3cc(-c4csc(CN5CCOCC5)c4)ccc23)c(Cl)cc1C` [Example 80, 4-{2-Chloro-5-methoxy-4-methylanilino)-7-[5-(4-morpholinylmethyl)-3-thienyl]-3-quinolinecarbonitrile], the IC50 was 1.5 nM in assay [1] and 80 nM in assay [2] (setting [3]).

`COc1cc(Nc2c(C#N)cnc3cc(-c4csc(CN5CCC(O)CC5)c4)ccc23)c(Cl)cc1Cl` [Example 192, 4-(2,4-dichloro-5-methoxyanilino)-7-{5-[(4-hydroxy-1-piperidnyl)methyl]-3-thienyl}-3-quinolinecarbonitrile]: the IC50 came out at 2.1 nM in assay [1] and 170 nM in assay [2] (setting [3]).

Regarding `COc1cc(Nc2c(C#N)cnc3cc(-c4ccc(CCCCN5CCOCC5)s4)ccc23)c(Cl)cc1Cl` [Example 22, 4-(2,4-Dichloro-5-methoxyanilino)-7-{5-[4-(4-morpholinyl)butyl]-2-thienyl}-3-quinolinecarbonitrile], the IC50 in assay [1] was 6.8 nM; in assay [2] (setting [3]), 600 nM.

For the compound `COc1cc(Nc2c(C#N)cnc3cc(-c4cnc(N5CCOCC5)nc4)ccc23)c(Cl)cc1Cl` [Example 186, 4-(2,4-dichloro-5-methoxyanilino)-7-[2-(4-morpholinyl)-5-pyrimidinyl]-3-quinolinecarbonitrile], the IC50 is 30 nM in assay [1] and above 10000 nM in assay [2] (setting [3]).

In the case of `COc1cc(Nc2c(C#N)cnc3cc(-c4cncn4CCN4CCOCC4)ccc23)c(Cl)cc1Cl` [Example 64, 4-(2,4-Dichloro-5-methoxyanilino)-7-{1-[2-(4-morpholinyl)ethyl]-1H-imidazol-5-yl}-3-quinolinecarbonitrile], the IC50 in assay [1] was 950 nM; in assay [2] (setting [3]) it was above 10000 nM.

For the compound `COc1cc(Nc2c(C#N)cnc3cc(-c4cnc(CN5CCOCC5)n4C)c(OC)cc23)c(Cl)cc1Cl` [Example 232, 4-(2,4-dichloro-5-methoxyanilino)-6-methoxy-7-[1-methyl-2-(4-morpholinylmethyl)-1H-imidazol-5-yl]-3-quinolinecarbonitrile], the IC50 in assay [1] came out at 78 nM; in assay [2] (setting [3]), 3500 nM.

Turning to `COc1cc(Nc2c(C#N)cnc3cc(-c4csc(CN5CCOCC5)c4)ccc23)c(Cl)cc1Cl` [Example 24, 4-(2,4-Dichloro-5-methoxyanilino)-7-[5-(4-morpholinylmethyl)-3-thienyl]-3-quinolinecarbonitrile], the IC50 in assay [1] was 2.1 nM and 3.7 nM; in assay [2] (setting [4]), 180 nM.

Take `COC(=O)C1CCN(Cc2ccc(-c3ccc4c(Nc5cc(OC)c(Cl)cc5Cl)c(C#N)cnc4c3)nc2)CC1` [Example 176, 1-{6-[3-cyano-4-(2,4-dichloro-5-methoxyphenylamino)-quinolin-7-yl]-pyridin-3-ylmethyl}piperidine-4-carboxylic acid methyl ester]: the IC50 in assay [1] was found to be 1.7 nM; in assay [2] (setting [3]) it was 90 nM.

Regarding `COc1ccc(/C=C/c2ccc3c(Nc4cc(OC)c(Cl)cc4Cl)c(C#N)cnc3c2)cc1` [Example 54, 4-(2,4-Dichloro-5-methoxyanilino)-7-[(E)-2-(4-methoxyphenyl)ethenyl]-3-quinolinecarbonitrile], the IC50 was 62 nM in assay [1] and above 10000 nM in assay [2] (setting [3]).

`COc1cc(Nc2c(C#N)cnc3cc(-c4cccc(NC(C)=O)c4)ccc23)c(Cl)cc1Cl` [Example 118, N-{3-[3-Cyano-4-(2,4-dichloro-5-methoxyanilino)-7-quinolinyl]phenyl}acetamide]: the half-maximal inhibitory concentration (IC50) in assay [1] turned out to be 160 nM; in assay [2] (setting [3]) it was 3000 nM.

As to `CN(C)CC#Cc1ccc2c(Nc3ccc(Cl)cc3Cl)c(C#N)cnc2c1` [Example 15, 4-(2,4-Dichloroanilino)-7-[3-(dimethylamino)-1-propynyl]-3-quinolinecarbonitrile], the IC50 in assay [1] was 63 nM; in assay [2] (setting [3]), above 10000 nM.

`COc1ccc(C#Cc2ccc3c(Nc4cc(OC)c(Cl)cc4Cl)c(C#N)cnc3c2)cc1` [Example 90, 4-(2,4-Dichloro-5-methoxyanilino)-7-[2-(4-methoxyphenyl)ethynyl]-3-quinolinecarbonitrile] yielded an inhibition at 0.1 µM in assay [1] (at 100 nM) of 10%. Also, the IC50 in assay [2] (setting [3]) is above 10000 nM.

As for `COc1cc(Nc2c(C#N)cnc3cc(-c4ccc(CN5CCN(CCO)CC5)o4)ccc23)c(Cl)cc1Cl` [Example 75, 4-(2,4-Dichloro-5-methoxyanilino)-7-(5-{[4-(2-hydroxyethyl)-1-piperazinyl]methyl}-2-furyl)-3-quinolinecarbonitrile], the 50% inhibitory concentration (IC50) was determined as 24 nM in assay [1] and 290 nM in assay [2] (setting [3]).

Regarding `CCN1CCN(CCc2ccc(-c3ccc4c(Nc5cc(OC)c(Cl)cc5Cl)c(C#N)cnc4c3)cc2)CC1` [Example 32, 4-(2,4-Dichloro-5-methoxyanilino)-7-{4-[2-(4-ethyl-1-piperazinyl)ethyl]phenyl}-3-quinolinecarbonitrile], the figures for the IC50 in assay [1], in assay [2] (setting [3]) and in assay [2] (setting [4]) were 2.7 nM, 2000 nM and 1900 nM, respectively.

`N#Cc1cnc2cc(-c3cc(CN4CCOCC4)c(CN4CCOCC4)s3)ccc2c1Nc1ccc(Cl)cc1Cl` [Example 17, 7-[4,5-Bis(4-morpholinylmethyl)-2-thienyl]-4-(2,4-dichloroanilino)-3-quinolinecarbonitrile]: the 50% inhibitory concentration (IC50) in assay [1] is 0.7 nM and 2.1 nM and 3.1 nM; in assay [2] (setting [3]), 310 nM.

`COc1cc(Nc2c(C#N)cnc3cc(-c4ccccc4CN4CCOCC4)ccc23)c(Cl)cc1Cl` [Example 115, 4-(2,4-Dichloro-5-methoxyanilino)-7-[2-(4-morpholinylmethyl)phenyl]-3-quinolinecarbonitrile]: the IC50 in assay [1] was 5000 nM; in assay [2] (setting [3]), above 10000 nM.

For the compound `COc1cc(Nc2c(C#N)cnc3cc(-c4ccsc4CN4CCOCC4)ccc23)c(Cl)cc1Cl` [Example 66, 4-(2.4-Dichloro-5-methoxyanilino)-7-[2-(4-morpholinylmethyl)-3-thienyl]-3-quinolinecarbonitrile], the concentration for half-maximal inhibition (IC50) in assay [1] was 380 nM; in assay [2] (setting [3]), above 10000 nM.

Take `COc1cc(Nc2c(C#N)cnc3cc(-c4ccc(CCl)cc4)ccc23)c(Cl)cc1Cl` [Example 102, 7-[4-(Chloromethyl)phenyl]-4-(2,4-dichloro-5-methoxyanilino)-3-quinolinecarbonitrile]: the values for the IC50 in assay [1] and in assay [2] (setting [3]) were 18 nM and 7500 nM, respectively.

For `COc1cc(Nc2c(C#N)cnc3cc(-c4ccc(CN5CCCC5C(N)=O)cc4)ccc23)c(Cl)cc1Cl` (stereo in doubt) [Example 84, (2R)-1-{4-[3-Cyano-4-(2,4-dichloro-5-methoxyanilino)-7-quinolinyl]benzyl}-2-pyrrolidinecarboxamide], the IC50 in assay [1] is 7.5 nM; in assay [2] (Rattus norvegicus, Rat2, 120 h, read-out: anch-indep src-tx fib IC50), 770 nM.

In the case of `COc1cc(Nc2c(C#N)cnc3cc(C#CCN4CCOCC4)c(OC)cc23)c(Cl)cc1Cl` [Example 166, 4-(2,4-dichloro-5-methoxyanilino)-6-methoxy-7-[3-(4-morpholinyl)-1-propynyl]-3-quinoline-carbonitrile], the IC50 in assay [1] is 5.5 nM; in assay [2] (setting [3]), 720 nM.

With `COc1cc(Nc2c(C#N)cnc3cc(-c4ccc(-c5nnn[nH]5)cc4)ccc23)c(Cl)cc1Cl` [Example 105], the IC50 in assay [1] is 10 nM; in assay [2] (setting [3]), above 10000 nM; in assay [2] (setting [4]), 5900 nM.

The IC50 is the concentration needed to halve the response being measured. In general, inhibition refers to the relative decrease from the control value, in per cent. A low value points to a response near the control.

Values taken from EP1268431B1 (Wyeth, priority 2000, dated 2001).
